Experiments:
[1] = test system: insulin-induced glucagon release; assay: Insulin-induced glucagon assay; assay type: in vivo; conditions: derived from the glucagon and insulin assays in rats
Experimental: After several days of acclimatization, rats were weigh-grouped and used on the succeeding one to three days. The rats were injected subcutaneously with 40 mg/kg pentobarbitol(Nembutal). Approximately 30 minutes after injection, the jugular and the hepatic portal veins were exposed and an injection of 0.1% bovine serum albumin (BSA)-saline vehicle or 1 IU/1 ml/kg porcine insulin in the same vehicle was administered into the jugular vein. At precisely 15 minutes after the intravenous (i.v.)injection a 1 ml blood sample was collected from the hepatic portal vein and the rat sacrificed with C02.
The blood sample was collected into a syringe containing 0.70 mg Na-EDTA and 0.1 mg Aprotinin, a commercially available protease inhibitor, in 0.1 ml 0.9% saline. The blood sample was mixed in the syringe and transferred to a plastic microcontainer serum-separator tube and held in the dark on ice. Plasma was harvested within 6 hours by centrifugation and stored at -20°C. The test material was administered intramuscularly to the animal immediately prior to the i.v. injection of insulin. Plasma samples were analyzed for levels of glucagon using a commercially available radioimmuneassay kit for animal glucagon (Cambridge Medical Technology). […]

growth hormone = assay: Nembutal-induced growth hormone assay; assay type: in vivo, male rats; conditions: derived from the growth hormone and insulin assays in rats
Experimental: After several days of acclimatization, male rats were weight-grouped and used on the succeeding one to three days. The rats were fasted the day prior to use. Each test rat was given an intramuscular (IM) injection of test compound or vehicle (0.1 % BSA-saline) into the right rear leg.
Immediately following the IM injection, a subcutaneous injection of Nembutal (60 mg/kg) was given. Thirteen minutes after Nembutal administration, each rat was exposed to 2 minutes of ether anesthesia followed by the collection of a 1 ml blood sample via the ocular orbit. Serum separator tubes were used to prepare serum from the blood samples. The serum samples were stored at -20°C until analysis by radioimmune assay. The mean percent inhibition of growth hormone was determined for the test compounds using the method as described in Examples 4 and 5 and the EDso derived.

Sandostatin
Relative selectivities for glucagon/insulin [1]: 11 | Relative selectivities for growth hormone/insulin (growth hormone): 103

From patent EP0363589A2, “Somatostatin analogues” (SYNTEX (U.S.A.) INC., priority 1988, dated 1990)
